Results reported in US8697867B2, “Cross-linked cyclic amine compounds and agents for pest control” (Nippon Soda Co., Ltd., priority 2005, dated 2014).

Legend:
Tetranychus urticae = test: Effectiveness against Tetranychus urticae (adulticidal rate on common bean leaf); assay type: in vivo; conditions: 125 ppm wettable powder dilution; adult females resistant to organophosphorus pesticides; 3 days after application; 25° C., 65% humidity
Panonychus citri = test: Effectiveness against Panonychus citri (mandarin orange leaf in petri dish); assay type: in vivo; conditions: 125 ppm emulsion dilution; adults removed 3 days after application; examined on the 11th day; 25° C., 65% humidity
Procedure: 10 adult female Panonychus citri were inoculated on the leaf of a mandarin orange, which was placed in a petri dish. After the inoculation, the drug solution, which was prepared by following the method of the emulsion shown in Example 2 of the drugs and by diluting with water to achieve the compound concentration of 125 ppm, was applied using a rotary spreading tower. The dish was placed in a temperature-controlled room where the temperature and humidity were set to 25° C. and 65% respectively, adults were removed 3 days after the application, and whether eggs laid during these 3 days could grow to become adults was examined on the 11th day.

## FC(F)(F)c1ccc(OC2CC3CCC(C2)N3c2ccc(C(F)(F)F)cn2)nc1 (stereo not drawn) [Compound 2-3, 3α-(5-trifluoromethyl-2-pyridyloxy)-8-(5-trifluoromethyl-pyridin-2-yl)-8-azabicyclo[3.2.1]octane]
Tetranychus urticae
  insecticidal rate (adulticidal rate): 100%

## CCCOc1cc(C(F)(F)F)ccc1OC1CC2CCC(C1)N2c1ccc(C(F)(F)F)c(F)c1 (stereo not drawn) [Compound 4-70, 3α-[2-n-propoxy-4-(trifluoromethyl)phenoxy]-8-[3-fluoro-4-(trifluoromethyl)phenyl]-8-azabicyclo[3.2.1]octane]
Tetranychus urticae
  insecticidal rate (adulticidal rate): 100%
Panonychus citri
  insecticidal rate (whether eggs laid during 3 days could grow to adults): 100%
